From US20210238176A1, “PESTICIDALLY-ACTIVE BICYCLIC HETEROAROMATIC COMPOUNDS” (SYNGENTA CROP PROTECTION AG, priority 2018, published 2021)

Tests used:
Format in all cases: in vivo
[1] = system: Myzus persicae (Green Peach Aphid); assay: Myzus persicae (green peach aphid) feeding/contact activity, sunflower leaf discs; details: foliar, 144 h, application rate 200 ppm, aphid population of mixed ages, 6 days after infestation
Protocol: Myzus persicae (Green Peach Aphid): Feeding/Contact Activity
Sunflower leaf discs were placed onto agar in a 24-well microtiter plate and sprayed with aqueous test solutions prepared from 10,000 ppm DMSO stock solutions. After drying, the leaf discs were infested with an aphid population of mixed ages. The samples were assessed for mortality 6 days after infestation.

[2] = system: Bemisia tabaci (Cotton White Fly); assay: Bemisia tabaci (cotton white fly) feeding/contact activity, cotton leaf discs; details: foliar, 144 h, application rate 200 ppm, adult white flies, 6 days after incubation
Protocol: Bemisia tabaci (Cotton White Fly): Feeding/Contact Activity
Cotton leaf discs were placed on agar in 24-well microtiter plates and sprayed with aqueous test solutions prepared from 10,000 ppm DMSO stock solutions. After drying the leaf discs were infested with adult white flies. The samples were checked for mortality 6 days after incubation.

[3] = system: neonicotinoid-resistant Myzus persicae; assay: Myzus persicae (neonicotinoid-resistant) mixed population, contact/feeding, pepper plants; details: 120 h, neonicotinoid-resistant strain on pepper plants, 5 days after treatment, read-out: control (mortality)
Protocol: Myzus persicae (Neonicotinoid-Resistant, Green Peach Aphid), Mixed Population, Contact/Feeding.
Pepper plants were infested with mixed aged neonicotinoid-resistant aphid population and were treated 1 day after infestation with diluted test solutions in a spray chamber. 5 days after treatment, samples were assessed for mortality.

[4] = system: Myzus persicae (Green Peach Aphid); assay: Myzus persicae intrinsic activity, sucrose solution under Parafilm; details: 120 h, test rate 12 ppm, 5 days after infestation
From the text: Myzus persicae (Green Peach Aphid). Intrinsic Activity
Test compounds prepared from 10,000 ppm DMSO stock solutions were applied by pipette into 24-well microtiter plates and mixed with sucrose solution. The plates were closed with a stretched Parafilm. A plastic stencil with 24 holes was placed onto the plate and infested pea seedlings were placed directly on the Parafilm. The infested plate was closed with a gel blotting paper and another plastic stencil and then turned upside down. The samples were assessed for mortality 5 days after infestation.

[5] = system: Nilaparvata lugens (Brown Plant Hopper, metabolic neonicotinoid-resistant); assay: Nilaparvata lugens (metabolic neonicotinoid-resistant) larvicide, feeding/contact, rice plants; details: 168 h, N3 nymphs, neonicotinoid-resistant strain, 7 days after treatment, read-out: control (mortality and growth regulation)
Protocol: Nilaparvata lugens (Brown Plant Hopper—Metabolic Neonicotinoid-Resistant), Larvicide, Feeding/Contact
Rice plants were treated with the diluted test solutions in a spray chamber. After drying, the plants were infested with ˜20 N3 nymphs. 7 days after the treatment, samples were assessed for mortality and growth regulation.

[6] = system: Myzus persicae (Green Peach Aphid); assay: Myzus persicae systemic activity, pea seedling roots in test solution; details: 144 h, test rate 24 ppm, systemic via pea seedling roots, 6 days
Protocol: Myzus persicae (Green Peach Aphid). Systemic Activity
Roots of pea seedlings infested with an aphid population of mixed ages were placed directly into aqueous test solutions prepared from 10,000 ppm DMSO stock solutions. The samples were assessed for mortality 6 days after placing seedlings into test solutions.

O=c1nc2n(Cc3ccc(Cl)nc3)cccc-2n1-c1cnn(C(F)(F)F)c1 [Compound A80, 4-[(6-chloro-3-pyridyl)methyl]-1-[1-(trifluoromethyl)pyrazol-4-yl]imidazo[4,5-b]pyridin-2-one]
≥ 80%: mortality at 200 ppm [1] | mortality at 200 ppm [2] | mortality at 200 ppm [3] | mortality at 12 ppm [4]

O=c1nc2n(Cc3ccc(Cl)nc3)cccc-2n1-c1ccc(OC(F)(F)F)cc1 [Compound A39, 4-[(6-chloro-3-pyridyl)methyl]-1-[4-(trifluoromethoxy)phenyl]imidazo[4,5-b]pyridin-2-one]
≥ 80%: mortality at 200 ppm [1] | mortality at 200 ppm [2] | mortality at 12 ppm [4]

O=c1nc2n(Cc3ccc(Cl)nc3)cccc-2n1-c1cccc(F)c1 [Compound A31, 4-[(6-chloro-3-pyridyl)methyl]-1-(3-fluorophenyl)imidazo[4,5-b]pyridin-2-one]
≥ 80%: mortality at 200 ppm [5] | mortality at 12 ppm [4] | mortality at 24 ppm [6]

O=c1nc2n(Cc3ccc(Cl)nc3)cccc-2n1-c1cncc(C(F)(F)F)c1 [Compound A25, 4-[(6-chloro-3-pyridyl)methyl]-1-[5-(trifluoromethyl)-3-pyridyl]imidazo[4,5-b]pyridin-2-one]
≥ 80%: mortality at 200 ppm [1] | mortality at 12 ppm [4] | mortality at 24 ppm [6]

O=c1nc2n(Cc3ccc(Cl)nc3)cccc-2n1-c1cccnc1 [Compound A33, 4-[(6-chloro-3-pyridyl)methyl]-1-(3-pyridyl)imidazo[4,5-b]pyridin-2-one]
≥ 80%: mortality at 200 ppm [1] | mortality at 200 ppm [5] | mortality at 12 ppm [4] | mortality at 24 ppm [6]

O=c1nc2n(Cc3ccc(Cl)nc3)cccc-2n1-c1cncs1 [Compound A66, 4-[(6-chloro-3-pyridyl)methyl]-1-thiazol-5-yl-imidazo[4,5-b]pyridin-2-one]
≥ 80%: mortality at 200 ppm [1] | mortality at 200 ppm [2] | mortality at 12 ppm [4]

Cn1cc(-n2c3cccn(Cc4ccc(Cl)nc4)c-3nc2=O)c(C(F)(F)F)n1 [Compound A96, 4-[(6-chloro-3-pyridyl)methyl]-1-[1-methyl-3-(trifluoromethyl)pyrazol-4-yl]imidazo[4,5-b]pyridin-2-one]
≥ 80%: mortality at 200 ppm [1] | mortality at 200 ppm [2] | mortality at 12 ppm [4] | mortality at 24 ppm [6]

O=c1nc2n(Cc3ccc(Cl)nc3)cccc-2n1-c1cnn(CC(F)(F)F)c1 [Compound A85, 4-[(6-chloro-3-pyridyl)methyl]-1-[1-(2,2,2-trifluoroethyl)pyrazol-4-yl]imidazo[4,5-b]pyridin-2-one]
≥ 80%: mortality at 200 ppm [1] | mortality at 200 ppm [2] | mortality at 12 ppm [4] | mortality at 24 ppm [6]

O=c1nc2n(Cc3ccc(Cl)nc3)cccc-2n1-c1ccoc1 [Compound A70, 4-[(6-chloro-3-pyridyl)methyl]-1-(3-furyl)imidazo[4,5-b]pyridin-2-one]
≥ 80%: mortality at 200 ppm [2] | mortality at 12 ppm [4]

Cn1cc(-n2c3cccn(Cc4ccc(Cl)nc4)c-3nc2=O)cn1 [Compound A3, 4-[(6-chloro-3-pyridyl)methyl]-1-(1-methylpyrazol-4-yl)imidazo[4,5-b]pyridin-2-one]
≥ 80%: mortality at 200 ppm [1] | mortality at 200 ppm [2] | mortality at 200 ppm [5] | mortality at 200 ppm [3] | mortality at 12 ppm [4] | mortality at 24 ppm [6]

CCCn1cc(-n2c3cccn(Cc4ccc(Cl)nc4)c-3nc2=O)cn1 [Compound A83, 4-[(6-chloro-3-pyridyl)methyl]-1-(1-propylpyrazol-4-yl)imidazo[4,5-b]pyridin-2-one]
≥ 80%: mortality at 200 ppm [1] | mortality at 200 ppm [2] | mortality at 12 ppm [4] | mortality at 24 ppm [6]

CC(C)n1nccc1-n1c2cccn(Cc3ccc(Cl)nc3)c-2nc1=O [Compound A94, 4-[(6-chloro-3-pyridyl)methyl]-1-(2-isopropylpyrazol-3-yl)imidazo[4,5-b]pyridin-2-one]
≥ 80%: mortality at 200 ppm [1] | mortality at 200 ppm [2] | mortality at 12 ppm [4] | mortality at 24 ppm [6]

COc1ccccc1-n1c2cccn(Cc3ccc(Cl)nc3)c-2nc1=O [Compound A82, 4-[(6-chloro-3-pyridyl)methyl]-1-(2-methoxyphenyl)imidazo[4,5-b]pyridin-2-one]
≥ 80%: mortality at 200 ppm [1] | mortality at 12 ppm [4] | mortality at 24 ppm [6]

Cc1nn(C(C)C)cc1-n1c2cccn(Cc3ccc(Cl)nc3)c-2nc1=O [Compound A102, 4-[(6-chloro-3-pyridyl)methyl]-1-(1-isopropyl-3-methyl-pyrazol-4-yl)imidazo[4,5-b]pyridin-2-one]
≥ 80%: mortality at 200 ppm [1] | mortality at 200 ppm [2] | mortality at 12 ppm [4] | mortality at 24 ppm [6]

O=c1nc2n(Cc3ccc(Cl)nc3)cccc-2n1-c1ccc(F)cc1 [Compound A32, 4-[(6-chloro-3-pyridyl)methyl]-1-(4-fluorophenyl)imidazo[4,5-b]pyridin-2-one]
≥ 80%: mortality at 200 ppm [1] | mortality at 12 ppm [4] | mortality at 24 ppm [6]

Cn1ccc(-n2c3cccn(Cc4ccc(Cl)nc4)c-3nc2=O)n1 [Compound A2, 4-[(6-chloro-3-pyridyl)methyl]-1-(1-methylpyrazol-3-yl)imidazo[4,5-b]pyridin-2-one]
≥ 80%: mortality at 200 ppm [1] | mortality at 200 ppm [3] | mortality at 12 ppm [4] | mortality at 24 ppm [6]

Cc1nn(C(F)F)cc1-n1c2cccn(Cc3ccc(Cl)nc3)c-2nc1=O [Compound A98, 4-[(6-chloro-3-pyridyl)methyl]-1-[1-(difluoromethyl)-3-methyl-pyrazol-4-yl]imidazo[4,5-b]pyridin-2-one]
≥ 80%: mortality at 200 ppm [1] | mortality at 12 ppm [4] | mortality at 24 ppm [6]

O=c1nc2n(Cc3ccc(Cl)nc3)cccc-2n1-c1ccccc1 [Compound A34, 4-[(6-chloro-3-pyridyl)methyl]-1-phenyl-imidazo[4,5-b]pyridin-2-one]
≥ 80%: mortality at 200 ppm [1] | mortality at 200 ppm [5] | mortality at 12 ppm [4] | mortality at 24 ppm [6]

Cc1c(-n2c3cccn(Cc4ccc(Cl)nc4)c-3nc2=O)cnn1C(F)F [Compound A99, 4-[(6-chloro-3-pyridyl)methyl]-1-[1-(difluoromethyl)-5-methyl-pyrazol-4-yl]imidazo[4,5-b]pyridin-2-one]
≥ 80%: mortality at 200 ppm [1] | mortality at 12 ppm [4] | mortality at 24 ppm [6]

CC(C)n1cc(-n2c3cccn(Cc4ccc(Cl)nc4)c-3nc2=O)cn1 [Compound A62, 4-[(6-chloro-3-pyridyl)methyl]-1-(1-isopropylpyrazol-4-yl)imidazo[4,5-b]pyridin-2-one]
≥ 80%: mortality at 200 ppm [1] | mortality at 200 ppm [2] | mortality at 12 ppm [4]

O=c1nc2n(Cc3ccc(Cl)nc3)cccc-2n1-c1ccc(C(F)(F)F)cc1 [Compound A13, 4-[(6-chloro-3-pyridyl)methyl]-1-[4-(trifluoromethyl)phenyl]imidazo[4,5-b]pyridin-2-one]
≥ 80%: mortality at 200 ppm [1] | mortality at 200 ppm [2] | mortality at 12 ppm [4]

CCc1nn(C)cc1-n1c2cccn(Cc3ccc(Cl)nc3)c-2nc1=O [Compound A100, 4-[(6-chloro-3-pyridyl)methyl]-1-(3-ethyl-1-methyl-pyrazol-4-yl)imidazo[4,5-b]pyridin-2-one]
≥ 80%: mortality at 200 ppm [1] | mortality at 200 ppm [2] | mortality at 12 ppm [4] | mortality at 24 ppm [6]

N#Cc1ccccc1-n1c2cccn(Cc3ccc(Cl)nc3)c-2nc1=O [Compound A40, 2-[4-[(6-chloro-3-pyridyl)methyl]-2-oxo-imidazo[4,5-b]pyridin-1-yl]benzonitrile]
≥ 80%: mortality at 200 ppm [1] | mortality at 12 ppm [4] | mortality at 24 ppm [6]

CCn1cc(-n2c3cccn(Cc4ccc(Cl)nc4)c-3nc2=O)c(C)n1 [Compound A101, 4-[(6-chloro-3-pyridyl)methyl]-1-(1-ethyl-3-methyl-pyrazol-4-yl)imidazo[4,5-b]pyridin-2-one]
≥ 80%: mortality at 200 ppm [1] | mortality at 200 ppm [2] | mortality at 12 ppm [4]

Cn1nc(C(F)(F)F)cc1-n1c2cccn(Cc3ccc(Cl)nc3)c-2nc1=O [Compound A88, 4-[(6-chloro-3-pyridyl)methyl]-1-[2-methyl-5-(trifluoromethyl)pyrazol-3-yl]imidazo[4,5-b]pyridin-2-one]
≥ 80%: mortality at 200 ppm [1] | mortality at 200 ppm [2] | mortality at 12 ppm [4] | mortality at 24 ppm [6]
